Measurements: ChEMBL document CHEMBL1201862, “PubChem BioAssay data set” (2004)
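Cells were grown in 96-well plates and exposed to each compound for 48 hours at five concentrations; endpoints were interpolated linearly between bracketing concentrations, or set to the highest concentration if not reached. GI50 marks 50% less growth.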 Activity calls are given as the source filed them. Rule as the data show it: active = GI50 up to about 1.1 µM and inactive = higher.

Tests used:
Experiment in all cases: NCI anticancer screen, dose series, 48 h
OVCAR-8 = system: OVCAR-8
OVCAR-5 = system: OVCAR-5
K562 = system: K562
UACC-257 = system: UACC-257
NCI/ADR-RES = system: NCI/ADR-RES
SF-295 = system: SF-295
RPMI-8226 = system: RPMI-8226
RXF 393 = system: RXF 393
U-251 = system: U-251
786-0 = system: 786-0
MOLT-4 = system: MOLT-4
HCT-15 = system: HCT-15
MDA-MB-231 = system: MDA-MB-231
OVCAR-4 = system: OVCAR-4
NCI-H226 = system: NCI-H226
OVCAR-3 = system: OVCAR-3
Malme-3M = system: Malme-3M
SK-MEL-28 = system: SK-MEL-28
LOX IMVI = system: LOX IMVI
T47D = system: T47D

Structure (SMILES)	GI50 (OVCAR-8)	GI50 (OVCAR-5)	GI50 (K562)	GI50 (UACC-257)	GI50 (NCI/ADR-RES)	GI50 (SF-295)	GI50 (RPMI-8226)	GI50 (RXF 393)	GI50 (U-251)	GI50 (786-0)	GI50 (MOLT-4)	GI50 (HCT-15) [µM]	GI50 (MDA-MB-231)	GI50 (OVCAR-4)	GI50 (NCI-H226)	GI50 (OVCAR-3)	GI50 (Malme-3M)	GI50 (SK-MEL-28)	GI50 (LOX IMVI)	GI50 (T47D)
Cc1ccc(CCCC(=O)O)cc1C	> 100 µM (inactive)	> 100 µM (inactive)	> 100 µM (inactive)	> 100 µM (inactive)	> 100 µM (inactive)	> 100 µM (inactive)	> 100 µM (inactive)	> 100 µM (inactive)	> 100 µM (inactive)	> 100 µM (inactive)	> 100 µM (inactive)	> 100	> 100 µM (inactive)	> 100 µM (inactive)	> 100 µM (inactive)	> 100 µM (inactive)	> 100 µM (inactive)	> 100 µM (inactive)	> 100 µM (inactive)	–
CCOC(=O)c1c(NCc2ccccc2)n(-c2ccccc2)c(=S)n(-c2ccccc2)c1=O	> 100 µM (inactive)	> 100 µM (inactive)	41.1 µM (inactive)	> 100 µM (inactive)	–	49.4 µM (inactive)	35.6 µM (inactive)	> 100 µM (inactive)	> 100 µM (inactive)	> 100 µM (inactive)	34.5 µM (inactive)	63.1	> 100 µM (inactive)	98.6 µM (inactive)	> 100 µM (inactive)	> 100 µM (inactive)	> 100 µM (inactive)	> 100 µM (inactive)	> 100 µM (inactive)	66.4 µM (inactive)
CCn1c(O)c(C(=O)NC(C)c2ccc([N+](=O)[O-])cc2)c(=O)n(CC)c1=S (stereo not given)	–	2.23 µM (inactive)	0.951 µM (active)	3.85 µM (inactive)	–	1 µM (active)	1.43 µM (inactive)	3.11 µM (inactive)	1.84 µM (inactive)	3.27 µM (inactive)	2.05 µM (inactive)	2.58	2.91 µM (inactive)	1.48 µM (inactive)	2.75 µM (inactive)	2.16 µM (inactive)	–	4.27 µM (inactive)	2.31 µM (inactive)	3.33 µM (inactive)
COc1cc(C2c3c(ccc4ccccc34)C(=O)C3CCC(=O)N32)cc(OC)c1O (stereo not given)	> 25 µM (inactive)	> 25 µM (inactive)	> 25 µM (inactive)	> 25 µM (inactive)	> 25 µM (inactive)	> 25 µM (inactive)	> 25 µM (inactive)	> 25 µM (inactive)	> 25 µM (inactive)	> 25 µM (inactive)	> 25 µM (inactive)	> 25	–	> 25 µM (inactive)	> 25 µM (inactive)	> 25 µM (inactive)	–	> 25 µM (inactive)	–	> 25 µM (inactive)
COC(=O)N[C@@H]1C[C@H]2CC[C@]1(O[Si](C(C)C)(C(C)C)C(C)C)C(=O)C2	23.1 µM (inactive)	18.5 µM (inactive)	> 100 µM (inactive)	11.8 µM (inactive)	14.8 µM (inactive)	14.7 µM (inactive)	15.8 µM (inactive)	–	> 10 µM (inactive)	17.9 µM (inactive)	24.3 µM (inactive)	17.8	20.5 µM (inactive)	14.5 µM (inactive)	14.2 µM (inactive)	17.7 µM (inactive)	–	14.6 µM (inactive)	–	19 µM (inactive)
O=C(C(=C(I)I)c1ccccc1)c1ccccc1	37.2 µM (inactive)	86.3 µM (inactive)	4.7 µM (inactive)	37.4 µM (inactive)	28.6 µM (inactive)	21.7 µM (inactive)	19.5 µM (inactive)	–	–	> 10 µM (inactive)	19.8 µM (inactive)	29.9	–	39.9 µM (inactive)	–	20.9 µM (inactive)	19.7 µM (inactive)	30.7 µM (inactive)	–	–
S=C(NN=C1NCCCN1)Nc1ccccc1	> 100 µM (inactive)	> 100 µM (inactive)	99.5 µM (inactive)	> 100 µM (inactive)	> 100 µM (inactive)	> 100 µM (inactive)	28.2 µM (inactive)	> 100 µM (inactive)	> 100 µM (inactive)	> 100 µM (inactive)	48.3 µM (inactive)	> 100	–	> 100 µM (inactive)	> 100 µM (inactive)	> 100 µM (inactive)	> 100 µM (inactive)	> 100 µM (inactive)	> 100 µM (inactive)	> 100 µM (inactive)
COc1ccc2c(c1)CC[C@@H]1[C@@H]2CC[C@]2(C)C(=O)/C(=C/c3ccc(OC)c(OC)c3)C[C@@H]12	–	> 100 µM (inactive)	–	–	> 100 µM (inactive)	> 100 µM (inactive)	56.2 µM (inactive)	> 100 µM (inactive)	> 100 µM (inactive)	> 100 µM (inactive)	> 100 µM (inactive)	> 100	> 100 µM (inactive)	> 100 µM (inactive)	–	> 100 µM (inactive)	> 100 µM (inactive)	–	–	–
